This assay has as its system complement level. Description: Complement Level Reduction Test. The following applies: serum of dosed guinea pigs, undiluted serum capillary tube method, compared to undosed controls. It counts as in vivo.

Where a name gives a salt, the structure may show the parent alone.

On to `O=C(Nc1ccc(-n2nc3ccc4cc(S(=O)(=O)O)cc(O)c4c3n2)c(S(=O)(=O)O)c1)Nc1ccc(-n2nc3ccc4cc(S(=O)(=O)O)cc(O)c4c3n2)c(S(=O)(=O)O)c1` [3,3'-Ureylenebis[6-(9-hydroxy-7-sulfo-2H-naphtho[1,2-d]triazol-2-yl)benzenesulfonic acid] tetrasodium salt], for which the “% Reduction Complement, In Vivo” value came to 42%.

For the origin of these results see US3985884A, “Complement inhibitors” (American Cyanamid Company, priority 1975, dated 1976).
